Calls of active or inactive are those of the source. No cut-off for these calls is given here.

One experiment deals with Acetylcholinesterase (Electrophorus electricus, UniProt O42275). Put plainly: Inhibition of electric eel AChE using acetylthiocholine iodide as substrate preincubated for 10 mins followed by substrate addition measured for 6 mins by Ellman's method.
Acetylcholinesterase, sequence (O42275 whole entry): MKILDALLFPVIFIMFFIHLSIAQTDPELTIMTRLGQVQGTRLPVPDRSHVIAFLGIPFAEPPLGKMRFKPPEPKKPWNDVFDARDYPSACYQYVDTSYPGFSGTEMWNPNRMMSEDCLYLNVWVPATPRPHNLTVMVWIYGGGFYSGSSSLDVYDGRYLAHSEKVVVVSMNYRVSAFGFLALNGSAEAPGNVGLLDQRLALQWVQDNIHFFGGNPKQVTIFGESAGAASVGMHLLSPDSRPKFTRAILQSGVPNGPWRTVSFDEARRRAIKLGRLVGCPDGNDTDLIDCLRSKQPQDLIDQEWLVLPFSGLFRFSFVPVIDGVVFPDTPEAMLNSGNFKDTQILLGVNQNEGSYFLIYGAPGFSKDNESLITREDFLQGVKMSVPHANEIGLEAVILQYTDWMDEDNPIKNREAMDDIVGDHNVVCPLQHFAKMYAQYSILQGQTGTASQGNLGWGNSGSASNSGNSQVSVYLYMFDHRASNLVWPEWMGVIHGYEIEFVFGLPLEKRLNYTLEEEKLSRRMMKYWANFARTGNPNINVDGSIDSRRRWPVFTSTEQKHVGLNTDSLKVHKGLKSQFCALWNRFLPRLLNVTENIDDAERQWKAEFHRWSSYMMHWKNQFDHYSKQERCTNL
In turn, `CCCCCC1c2c(nc3c(c2N)CCCC3)-n2c(=O)c3ccccc3c(=O)n21` (stereo unspecified) showed an IC50 of 612 nM. The same measure, in the same setting: then `COc1cc(OC)cc(C2c3c(nc4c(c3N)CCCC4)-n3c(=O)c4ccccc4c(=O)n32)c1` (stereo unspecified), with 3370 nM; and `Nc1c2c(nc3c1C(c1ccccc1[N+](=O)[O-])n1c(=O)c4ccccc4c(=O)n1-3)CCCC2` (stereo unspecified), with 280 nM; and `Nc1c2c(nc3c1C(c1cccc(Br)c1)n1c(=O)c4ccccc4c(=O)n1-3)CCCC2` (stereo unspecified), with 271 nM. `Nc1c2c(nc3c1C(c1cccc([N+](=O)[O-])c1)n1c(=O)c4ccccc4c(=O)n1-3)CCCC2` (stereo unspecified) displayed an IC50 of 140 nM. Still for that read-out and setting: then `Nc1c2c(nc3c1C(c1ccccc1)n1c(=O)c4ccccc4c(=O)n1-3)CCCC2` (stereo unspecified), with 614 nM; and `CCCC1c2c(nc3c(c2N)CCCC3)-n2c(=O)c3ccccc3c(=O)n21` (stereo unspecified), with 1630 nM; and `CC1c2c(nc3c(c2N)CCCC3)-n2c(=O)c3ccccc3c(=O)n21` (stereo unspecified), with 2150 nM.

`Cc1ccc(C2c3c(nc4c(c3N)CCCC4)-n3c(=O)c4ccccc4c(=O)n32)cc1` (stereo unspecified) had an IC50 of 100 nM. On the same count and under the same terms, then `Nc1c2c(nc3c1C(c1ccccc1F)n1c(=O)c4ccccc4c(=O)n1-3)CCCC2` (stereo unspecified), with 618 nM.

The next experiment deals with Cholinesterase (Equus caballus, UniProt P81908). In words: Inhibition of equine serum BuChE using butyrylthiocholine iodide as substrate preincubated for 10 mins followed by substrate addition measured for 6 mins by Ellman's method.
Cholinesterase, sequence (P81908 whole entry): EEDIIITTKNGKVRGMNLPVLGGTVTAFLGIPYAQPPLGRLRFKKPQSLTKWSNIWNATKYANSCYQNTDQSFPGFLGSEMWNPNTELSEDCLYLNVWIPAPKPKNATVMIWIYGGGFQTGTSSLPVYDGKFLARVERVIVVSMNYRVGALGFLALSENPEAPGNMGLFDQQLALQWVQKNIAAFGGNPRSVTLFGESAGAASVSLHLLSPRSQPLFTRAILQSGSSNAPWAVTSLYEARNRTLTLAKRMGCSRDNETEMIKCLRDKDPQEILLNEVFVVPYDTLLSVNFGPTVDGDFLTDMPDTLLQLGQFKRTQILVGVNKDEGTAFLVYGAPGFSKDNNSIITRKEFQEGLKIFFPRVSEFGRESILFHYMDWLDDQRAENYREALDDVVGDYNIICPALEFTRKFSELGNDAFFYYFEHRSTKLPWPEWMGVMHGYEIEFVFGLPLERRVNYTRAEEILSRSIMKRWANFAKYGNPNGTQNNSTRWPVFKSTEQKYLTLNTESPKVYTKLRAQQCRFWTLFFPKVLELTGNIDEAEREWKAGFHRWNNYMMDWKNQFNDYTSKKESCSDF
`CCCCCC1c2c(nc3c(c2N)CCCC3)-n2c(=O)c3ccccc3c(=O)n21` (stereo unspecified) came in with an IC50 of more than 100000 nM.

The molecule `COc1cc(OC)cc(C2c3c(nc4c(c3N)CCCC4)-n3c(=O)c4ccccc4c(=O)n32)c1` (stereo unspecified) registered an IC50 of more than 100000 nM. On the same count and under the same terms, next, `Nc1c2c(nc3c1C(c1ccccc1[N+](=O)[O-])n1c(=O)c4ccccc4c(=O)n1-3)CCCC2` (stereo unspecified): more than 100000 nM. For the molecule `Nc1c2c(nc3c1C(c1cccc(Br)c1)n1c(=O)c4ccccc4c(=O)n1-3)CCCC2` (stereo unspecified), the IC50 was more than 100000 nM. Same read-out and setting: next, `Nc1c2c(nc3c1C(c1cccc([N+](=O)[O-])c1)n1c(=O)c4ccccc4c(=O)n1-3)CCCC2` (stereo unspecified): more than 100000 nM; `Nc1c2c(nc3c1C(c1ccccc1)n1c(=O)c4ccccc4c(=O)n1-3)CCCC2` (stereo unspecified): more than 100000 nM.

On to `CCCC1c2c(nc3c(c2N)CCCC3)-n2c(=O)c3ccccc3c(=O)n21` (stereo unspecified), for which the IC50 is more than 100000 nM. Same read-out and setting: next, `CC1c2c(nc3c(c2N)CCCC3)-n2c(=O)c3ccccc3c(=O)n21` (stereo unspecified): more than 100000 nM; `Cc1ccc(C2c3c(nc4c(c3N)CCCC4)-n3c(=O)c4ccccc4c(=O)n32)cc1` (stereo unspecified): more than 100000 nM; `Nc1c2c(nc3c1C(c1ccccc1F)n1c(=O)c4ccccc4c(=O)n1-3)CCCC2` (stereo unspecified): more than 100000 nM.

For a further experiment, the system named is PC-12. Put plainly: Neuroprotective activity in rat PC12 cells assessed as decrease in H2O2 mediated apoptosis at 10 uM preincubated for 3 hrs followed by H2O2 challenge measured after 24 hrs by MTT assay. In kind it is functional, cell-based.
`O=c1c(O)c(-c2ccc(O)c(O)c2)oc2cc(O)cc(O)c12`: the outcome was Active.

The values are drawn from ChEMBL document CHEMBL4190323, “New racemic annulated pyrazolo[1,2-b]phthalazines as tacrine-like AChE inhibitors with potential use in Alzheimer's disease” (Eur J Med Chem, 2017).
